Assay [1] deals with BJ. The experiment in a line: cytotoxicity toward BJ-TERT-LT-ST fibroblasts, dose response, cell-based, RAS-independent, luminescence (AID 1935).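 Also: BJ fibroblasts immortalized with TERT plus LT and ST oncogenes.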 The assay is classed as functional. The settings on record: Homo sapiens.
Assay [2] relates to BJ. Description: cytotoxicity toward BJ-TERT fibroblasts, dose response, cell-based, RAS-independent, luminescence (AID 1933). The assay is classed as functional. The note with it: Homo sapiens.
Another assay concerns INS1. The experiment in a line: beta cell apoptosis inhibitors, cytokine rescue, dose response, luminescence, retest (AID 449756).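 Also: cell death triggered by IL-1 beta plus TNF-alpha plus IFN-gamma mixture; protective hits raise ATP signal compared with cytokine alone wells.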 The format is functional, cell-based. The note with it: Rattus norvegicus.
In assay [3] the test system is BJ. Description: cells. The assay is classed as functional, cell-based. The settings on record: Homo sapiens.
A short description of assay [4]: cytotoxicity toward DRD oncogenic fibroblasts, dose response, cell-based, non-viral oncogenic, luminescence (AID 1934). The format is functional. The note with it: Homo sapiens.
In assay [5] the test system is BJ. The experiment in a line: cytotoxicity toward Ras-transformed BJeLR fibroblasts, dose response, cell-based, alamar blue fluorescence, cherrypicked samples (AID 2631).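 Also: confirmatory dose-response assay in RAS-dependent BJ fibroblasts engineered with TERT, LT and ST, with cytotoxicity read by fluorescence.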 The assay is classed as functional. The settings on record: Homo sapiens.
In assay [6] the target is Glucose-6-phosphate 1-dehydrogenase (Homo sapiens, UniProt P11413). Description: human G6PD enzyme inhibitors, dose response, selectivity assay for P. falciparum G6PD inhibitor project, biochemical, fluorescence (AID 504792). The format is functional.
Chain of Glucose-6-phosphate 1-dehydrogenase (P11413 whole entry): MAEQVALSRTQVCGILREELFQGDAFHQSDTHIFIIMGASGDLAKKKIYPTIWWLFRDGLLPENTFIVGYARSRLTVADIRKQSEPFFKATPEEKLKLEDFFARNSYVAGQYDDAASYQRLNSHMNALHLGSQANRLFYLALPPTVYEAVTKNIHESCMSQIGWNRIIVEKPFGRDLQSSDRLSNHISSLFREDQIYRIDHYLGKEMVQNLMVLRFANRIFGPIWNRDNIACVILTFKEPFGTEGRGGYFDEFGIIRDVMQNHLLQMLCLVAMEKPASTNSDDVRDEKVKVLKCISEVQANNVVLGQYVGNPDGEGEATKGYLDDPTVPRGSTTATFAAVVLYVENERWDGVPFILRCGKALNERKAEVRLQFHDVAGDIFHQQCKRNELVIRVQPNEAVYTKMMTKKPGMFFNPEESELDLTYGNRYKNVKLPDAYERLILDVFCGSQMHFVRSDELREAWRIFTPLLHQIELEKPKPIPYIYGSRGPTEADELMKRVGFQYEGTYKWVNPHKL
Assay [7] addresses T1, Heat shock factor protein 1 (Mus musculus, UniProt P38532).
T1 sequence (P38532 whole entry): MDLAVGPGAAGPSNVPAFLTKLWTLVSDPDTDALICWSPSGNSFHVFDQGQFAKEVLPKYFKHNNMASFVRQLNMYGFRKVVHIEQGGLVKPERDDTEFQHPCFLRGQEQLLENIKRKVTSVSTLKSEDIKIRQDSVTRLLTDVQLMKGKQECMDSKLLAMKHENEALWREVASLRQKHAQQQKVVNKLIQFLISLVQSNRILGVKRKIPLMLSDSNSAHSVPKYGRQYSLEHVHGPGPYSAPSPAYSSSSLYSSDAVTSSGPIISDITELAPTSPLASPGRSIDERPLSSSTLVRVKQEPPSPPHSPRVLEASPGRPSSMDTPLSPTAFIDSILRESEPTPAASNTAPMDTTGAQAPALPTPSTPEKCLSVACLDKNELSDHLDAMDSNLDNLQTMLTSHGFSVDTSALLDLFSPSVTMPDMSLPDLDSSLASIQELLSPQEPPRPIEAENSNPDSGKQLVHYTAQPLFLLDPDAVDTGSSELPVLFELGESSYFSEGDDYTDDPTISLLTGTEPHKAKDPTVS
The experiment in a line: inhibition of MG132-induced HSE-luciferase signal, confirmation, cell-based, NIH3T3, luminescence, dose retest (AID 2382).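 Also: NIH3T3 fibroblasts with HSF1-driven luciferase reporter stressed by proteasome inhibitor MG132; luminescence from HSF1-driven luciferase expression after 8 hours of MG132 stress.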 The assay is classed as functional.

The next assay concerns the target T2, Exodeoxyribonuclease V (Escherichia coli (strain K12), UniProt P04993+P07648+P08394).
T2 sequence (P04993 whole entry): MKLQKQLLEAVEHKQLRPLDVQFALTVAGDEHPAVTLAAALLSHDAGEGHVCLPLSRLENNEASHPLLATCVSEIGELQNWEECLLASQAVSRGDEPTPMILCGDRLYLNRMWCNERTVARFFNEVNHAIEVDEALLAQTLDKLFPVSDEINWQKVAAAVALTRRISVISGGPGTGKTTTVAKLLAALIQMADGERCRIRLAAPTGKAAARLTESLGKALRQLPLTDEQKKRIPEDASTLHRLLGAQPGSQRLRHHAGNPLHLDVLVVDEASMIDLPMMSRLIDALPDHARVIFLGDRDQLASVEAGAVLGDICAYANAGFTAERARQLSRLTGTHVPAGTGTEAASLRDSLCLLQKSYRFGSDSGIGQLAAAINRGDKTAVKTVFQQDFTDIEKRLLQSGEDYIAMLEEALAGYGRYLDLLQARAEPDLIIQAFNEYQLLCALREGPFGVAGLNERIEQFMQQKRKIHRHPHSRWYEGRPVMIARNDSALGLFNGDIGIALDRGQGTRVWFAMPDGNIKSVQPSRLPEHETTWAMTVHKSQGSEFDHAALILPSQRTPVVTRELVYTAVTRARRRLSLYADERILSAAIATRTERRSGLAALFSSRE
T2 sequence (P07648 whole entry): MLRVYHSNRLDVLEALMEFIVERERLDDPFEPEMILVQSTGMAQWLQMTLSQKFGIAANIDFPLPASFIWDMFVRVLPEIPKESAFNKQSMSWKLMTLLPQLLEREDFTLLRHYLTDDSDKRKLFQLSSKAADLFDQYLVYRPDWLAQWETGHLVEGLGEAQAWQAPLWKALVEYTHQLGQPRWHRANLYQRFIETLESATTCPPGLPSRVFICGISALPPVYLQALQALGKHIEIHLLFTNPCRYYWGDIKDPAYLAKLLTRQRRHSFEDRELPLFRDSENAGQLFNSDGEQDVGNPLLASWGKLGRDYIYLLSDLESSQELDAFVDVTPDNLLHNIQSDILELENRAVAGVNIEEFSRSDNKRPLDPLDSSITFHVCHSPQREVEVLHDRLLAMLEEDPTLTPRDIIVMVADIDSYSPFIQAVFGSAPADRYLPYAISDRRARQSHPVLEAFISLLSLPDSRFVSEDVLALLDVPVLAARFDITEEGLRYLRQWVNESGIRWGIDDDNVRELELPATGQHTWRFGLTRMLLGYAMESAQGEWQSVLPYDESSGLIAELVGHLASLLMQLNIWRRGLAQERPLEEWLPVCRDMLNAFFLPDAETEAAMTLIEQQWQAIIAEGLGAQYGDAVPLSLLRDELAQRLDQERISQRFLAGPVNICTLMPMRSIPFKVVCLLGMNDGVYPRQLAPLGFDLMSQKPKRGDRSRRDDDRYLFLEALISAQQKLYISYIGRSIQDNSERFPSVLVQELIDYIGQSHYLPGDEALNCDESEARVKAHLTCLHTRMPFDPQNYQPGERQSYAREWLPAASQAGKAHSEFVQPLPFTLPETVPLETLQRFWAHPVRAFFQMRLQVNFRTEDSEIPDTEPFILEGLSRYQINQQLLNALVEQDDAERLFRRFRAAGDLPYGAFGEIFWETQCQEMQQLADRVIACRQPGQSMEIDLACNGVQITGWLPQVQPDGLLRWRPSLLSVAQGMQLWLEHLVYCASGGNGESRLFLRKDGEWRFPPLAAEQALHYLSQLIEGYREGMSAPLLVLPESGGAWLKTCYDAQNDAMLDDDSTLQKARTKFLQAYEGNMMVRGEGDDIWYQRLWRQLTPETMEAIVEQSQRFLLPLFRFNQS
T2 sequence (P08394 whole entry): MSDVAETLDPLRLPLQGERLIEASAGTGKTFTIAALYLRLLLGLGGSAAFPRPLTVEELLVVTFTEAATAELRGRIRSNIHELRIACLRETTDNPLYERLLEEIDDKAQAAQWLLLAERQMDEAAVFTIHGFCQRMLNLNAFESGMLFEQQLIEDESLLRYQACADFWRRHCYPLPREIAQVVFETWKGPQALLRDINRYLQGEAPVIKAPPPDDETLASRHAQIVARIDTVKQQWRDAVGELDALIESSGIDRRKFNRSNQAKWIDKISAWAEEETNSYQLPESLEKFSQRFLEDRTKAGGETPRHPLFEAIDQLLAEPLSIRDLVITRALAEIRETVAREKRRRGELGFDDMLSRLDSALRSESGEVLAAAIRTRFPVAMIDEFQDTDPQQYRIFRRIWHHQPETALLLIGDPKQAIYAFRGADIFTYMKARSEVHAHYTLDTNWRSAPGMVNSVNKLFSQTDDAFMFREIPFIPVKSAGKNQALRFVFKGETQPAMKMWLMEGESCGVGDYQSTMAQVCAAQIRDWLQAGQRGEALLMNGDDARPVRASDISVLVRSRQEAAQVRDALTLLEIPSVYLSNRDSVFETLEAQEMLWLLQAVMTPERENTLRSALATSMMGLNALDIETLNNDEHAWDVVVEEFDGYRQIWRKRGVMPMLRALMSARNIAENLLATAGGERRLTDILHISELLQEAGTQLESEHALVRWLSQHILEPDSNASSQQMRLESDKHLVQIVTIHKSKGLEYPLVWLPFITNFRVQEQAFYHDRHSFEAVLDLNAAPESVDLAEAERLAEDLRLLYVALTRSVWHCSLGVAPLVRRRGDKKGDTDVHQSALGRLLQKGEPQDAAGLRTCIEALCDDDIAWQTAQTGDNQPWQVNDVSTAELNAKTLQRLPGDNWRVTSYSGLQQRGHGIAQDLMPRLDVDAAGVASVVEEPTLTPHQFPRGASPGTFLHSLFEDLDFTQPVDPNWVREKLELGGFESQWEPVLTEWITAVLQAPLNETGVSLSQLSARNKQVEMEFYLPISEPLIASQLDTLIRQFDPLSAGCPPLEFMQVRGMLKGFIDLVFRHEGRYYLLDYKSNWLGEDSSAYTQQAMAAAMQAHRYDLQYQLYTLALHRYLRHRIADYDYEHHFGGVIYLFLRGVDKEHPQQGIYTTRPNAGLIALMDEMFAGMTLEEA
The experiment in a line: E. coli RecBCD inhibitors, dose response, counter-screen for AddAB inhibitor project, absorbance, V66 E. coli, mutant T4 phage (AID 492957). The format is functional, cell-based, Escherichia coli str. K-12 substr. MG1655. For orientation: A counterscreen serves to expose hits that act by an unwanted route or on another target.

The target in a further assay is Large T antigen (Simian virus 40, UniProt P03070). The format is functional, Betapolyomavirus macacae.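 Also: Confirmatory-stage PubChem screen for compounds that inhibit SV40 T antigen.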
Chain of Large T antigen (P03070 whole entry): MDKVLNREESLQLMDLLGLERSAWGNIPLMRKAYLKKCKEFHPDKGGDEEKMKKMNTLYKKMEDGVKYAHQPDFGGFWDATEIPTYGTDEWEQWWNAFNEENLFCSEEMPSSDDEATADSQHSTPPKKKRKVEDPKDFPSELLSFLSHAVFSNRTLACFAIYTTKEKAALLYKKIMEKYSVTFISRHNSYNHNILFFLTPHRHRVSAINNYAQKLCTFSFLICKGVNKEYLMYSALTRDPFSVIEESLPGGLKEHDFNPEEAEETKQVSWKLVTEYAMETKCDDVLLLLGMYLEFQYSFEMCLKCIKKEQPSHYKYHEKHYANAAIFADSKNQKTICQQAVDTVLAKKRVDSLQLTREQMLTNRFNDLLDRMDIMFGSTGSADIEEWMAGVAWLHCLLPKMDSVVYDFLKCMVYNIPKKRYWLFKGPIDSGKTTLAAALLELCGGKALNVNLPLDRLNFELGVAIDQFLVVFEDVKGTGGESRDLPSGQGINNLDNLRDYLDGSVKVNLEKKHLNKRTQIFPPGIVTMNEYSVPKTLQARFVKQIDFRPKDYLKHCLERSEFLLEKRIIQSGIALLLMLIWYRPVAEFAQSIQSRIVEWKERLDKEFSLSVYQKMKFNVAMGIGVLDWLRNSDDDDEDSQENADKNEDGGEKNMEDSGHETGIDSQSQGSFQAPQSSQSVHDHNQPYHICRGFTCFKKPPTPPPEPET
Assay [8] deals with T3, Rac GTPase-activating protein 1 (Homo sapiens, UniProt Q9H0H5).
T3 sequence (Q9H0H5 whole entry): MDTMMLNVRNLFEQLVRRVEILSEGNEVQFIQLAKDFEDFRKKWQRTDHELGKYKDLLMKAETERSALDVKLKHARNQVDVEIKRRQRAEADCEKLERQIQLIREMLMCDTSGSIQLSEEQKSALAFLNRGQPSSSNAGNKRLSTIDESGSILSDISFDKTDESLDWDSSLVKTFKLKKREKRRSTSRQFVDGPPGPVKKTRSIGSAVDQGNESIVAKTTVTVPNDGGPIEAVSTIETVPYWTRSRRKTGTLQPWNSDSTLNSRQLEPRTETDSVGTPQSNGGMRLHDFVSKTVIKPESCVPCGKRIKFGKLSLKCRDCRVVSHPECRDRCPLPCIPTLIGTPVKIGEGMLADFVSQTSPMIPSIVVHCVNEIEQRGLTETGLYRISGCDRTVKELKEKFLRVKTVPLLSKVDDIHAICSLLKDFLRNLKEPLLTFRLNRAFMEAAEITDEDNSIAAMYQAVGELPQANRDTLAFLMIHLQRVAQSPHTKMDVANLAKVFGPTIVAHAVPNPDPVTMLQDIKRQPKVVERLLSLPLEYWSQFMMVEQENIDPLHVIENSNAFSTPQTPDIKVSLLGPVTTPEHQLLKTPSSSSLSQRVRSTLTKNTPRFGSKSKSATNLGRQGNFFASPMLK
Description: MgcRacGAP GTPase-activating activity inhibitors, confirmation, biochemical, ADP Hunter fluorescence, primary and confirmatory (AID 624330). The format is functional.

Assay [9] in a line: Counterscreen for AddAB inhibitors: absorbance-based bacterial cell-based high throughput dose response assay for inhibitors of bacterial viability. [Related pubchem assays (depositor defined):AID435030, AID449728, AID449731, AID488942, AID488955, AID488956]. The format is functional.
Assay [10] can be described thus: insulin promoter down-regulators in MIN6 cells, imaging, high-content screening, mouse beta cells (AID 1628). The format is functional.
The nature of assay [11]: cytotoxicity in MIN6 insulinoma cells, dose response, cytotoxicity control, cell-based, mouse insulinoma (AID 2122).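 Also: confirmatory high-throughput counterscreen run to flag cytotoxic compounds; mouse MIN-6 beta cells carrying an insulin promoter eGFP reporter.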 The format is functional.
The nature of assay [12]: inhibitors of SNCA 5'UTR-driven reporter translation, confirmation, H4 neuroglioma cells, luminescence (AID 1988). The format is functional, cell-based.
Assay [13] in a line: Luminescence Cell-Based Dose Response HTS to Identify Inhibitors of 5'UTR Stem-Loop Driven Prion Protein mRNA Translation in H4 Neuroglioblastoma Cells. [Related pubchem assays: 1827 (Project Summary), 1813 (Primary HTS)]. The assay is classed as functional.
Assay [14] can be described thus: inhibitors of firefly luciferase expression or activity, dose response, H4 neuroglioma cells, luminescence (AID 1990). The format is functional, cell-based.

Each structure is given as a SMILES string. The source made the active and inactive calls.

The EC50 is the concentration giving half of the maximal effect. As usually defined, the AC50 is the concentration giving half of the maximal activity seen. What is called IC50 is the concentration that inhibits the measured activity by half.

For `CC(=O)Nc1ccc(NC(=O)CN(c2cccc([N+](=O)[O-])c2)S(C)(=O)=O)cc1`, the EC50 was > 150 µM (inconclusive) in the assay with BJ [1]; > 150 µM (not active) in the assay with BJ [2]; 3.09 µM (inconclusive) in the assay on BJ [3]; > 150 µM (inconclusive) in assay [4]; 11.8 µM (active) in the assay on BJ [5]. Further, in the assay on INS1, the AC50 is 6.91 µM (active).

`Cc1nc2ccccn2c1-c1ccnn1S(=O)(=O)c1ccc(F)cc1`: the IC50 in [6] is > 80 µM (inactive). In addition, the EC50 in [7] was > 195 µM (not active).

For `CC1(C)OC(=O)C(N=Nc2ccc(O)cc2)=C(O)O1`, the IC50 at Exodeoxyribonuclease V was > 119 µM (inactive); on Large T antigen, 6.72 µM (active); in assay [8] it was 20.9 µM (active); in assay [9], > 119 µM (inactive).

For the compound `CC(C)Cc1nc2oc3c(NCC4CCCO4)ncnc3c2c2c1CCC2` (stereo unspecified), the IC50 in [10] is 1.4 µM (active); in assay [11], 4.96 µM (active).

In the case of `CC(C)Oc1ccc(Cc2cnc(N)nc2N)cc1`, the results for the IC50 (on Exodeoxyribonuclease V; in assay [9]) were 56.3 µM (inactive) and 36.5 µM (inactive), respectively.

Take `CC(C)CCNc1nnnc2c1sc1nc(N3CCOCC3)c3c(c12)CC(C)(C)SC3`: the values for the EC50 in assay [12], in [13] and in assay [14] were > 120 µM (not active), > 120 µM (not active) and 27.9 µM (active), respectively. Further, the IC50 in assay [10] was 2.29 µM (active); in assay [11] it was 12.5 µM (inactive).

The record behind these values is ChEMBL document CHEMBL1201862, “PubChem BioAssay data set” (2004).
